{
  "source": "patent US6887712B1",
  "about": "“Methods and compositions to lower plasma cholesterol levels” (AtheroGenics, Inc., priority 1998, dated 2005)",
  "key": {"purified human LDL": {"biological_target": "T1, purified human LDL (Homo sapiens, UniProt P04114)", "T1 construct": "from tissue; host or cells: human LDL particles (plasma lipoprotein)", "T1 sequence (P04114 28-4563)": "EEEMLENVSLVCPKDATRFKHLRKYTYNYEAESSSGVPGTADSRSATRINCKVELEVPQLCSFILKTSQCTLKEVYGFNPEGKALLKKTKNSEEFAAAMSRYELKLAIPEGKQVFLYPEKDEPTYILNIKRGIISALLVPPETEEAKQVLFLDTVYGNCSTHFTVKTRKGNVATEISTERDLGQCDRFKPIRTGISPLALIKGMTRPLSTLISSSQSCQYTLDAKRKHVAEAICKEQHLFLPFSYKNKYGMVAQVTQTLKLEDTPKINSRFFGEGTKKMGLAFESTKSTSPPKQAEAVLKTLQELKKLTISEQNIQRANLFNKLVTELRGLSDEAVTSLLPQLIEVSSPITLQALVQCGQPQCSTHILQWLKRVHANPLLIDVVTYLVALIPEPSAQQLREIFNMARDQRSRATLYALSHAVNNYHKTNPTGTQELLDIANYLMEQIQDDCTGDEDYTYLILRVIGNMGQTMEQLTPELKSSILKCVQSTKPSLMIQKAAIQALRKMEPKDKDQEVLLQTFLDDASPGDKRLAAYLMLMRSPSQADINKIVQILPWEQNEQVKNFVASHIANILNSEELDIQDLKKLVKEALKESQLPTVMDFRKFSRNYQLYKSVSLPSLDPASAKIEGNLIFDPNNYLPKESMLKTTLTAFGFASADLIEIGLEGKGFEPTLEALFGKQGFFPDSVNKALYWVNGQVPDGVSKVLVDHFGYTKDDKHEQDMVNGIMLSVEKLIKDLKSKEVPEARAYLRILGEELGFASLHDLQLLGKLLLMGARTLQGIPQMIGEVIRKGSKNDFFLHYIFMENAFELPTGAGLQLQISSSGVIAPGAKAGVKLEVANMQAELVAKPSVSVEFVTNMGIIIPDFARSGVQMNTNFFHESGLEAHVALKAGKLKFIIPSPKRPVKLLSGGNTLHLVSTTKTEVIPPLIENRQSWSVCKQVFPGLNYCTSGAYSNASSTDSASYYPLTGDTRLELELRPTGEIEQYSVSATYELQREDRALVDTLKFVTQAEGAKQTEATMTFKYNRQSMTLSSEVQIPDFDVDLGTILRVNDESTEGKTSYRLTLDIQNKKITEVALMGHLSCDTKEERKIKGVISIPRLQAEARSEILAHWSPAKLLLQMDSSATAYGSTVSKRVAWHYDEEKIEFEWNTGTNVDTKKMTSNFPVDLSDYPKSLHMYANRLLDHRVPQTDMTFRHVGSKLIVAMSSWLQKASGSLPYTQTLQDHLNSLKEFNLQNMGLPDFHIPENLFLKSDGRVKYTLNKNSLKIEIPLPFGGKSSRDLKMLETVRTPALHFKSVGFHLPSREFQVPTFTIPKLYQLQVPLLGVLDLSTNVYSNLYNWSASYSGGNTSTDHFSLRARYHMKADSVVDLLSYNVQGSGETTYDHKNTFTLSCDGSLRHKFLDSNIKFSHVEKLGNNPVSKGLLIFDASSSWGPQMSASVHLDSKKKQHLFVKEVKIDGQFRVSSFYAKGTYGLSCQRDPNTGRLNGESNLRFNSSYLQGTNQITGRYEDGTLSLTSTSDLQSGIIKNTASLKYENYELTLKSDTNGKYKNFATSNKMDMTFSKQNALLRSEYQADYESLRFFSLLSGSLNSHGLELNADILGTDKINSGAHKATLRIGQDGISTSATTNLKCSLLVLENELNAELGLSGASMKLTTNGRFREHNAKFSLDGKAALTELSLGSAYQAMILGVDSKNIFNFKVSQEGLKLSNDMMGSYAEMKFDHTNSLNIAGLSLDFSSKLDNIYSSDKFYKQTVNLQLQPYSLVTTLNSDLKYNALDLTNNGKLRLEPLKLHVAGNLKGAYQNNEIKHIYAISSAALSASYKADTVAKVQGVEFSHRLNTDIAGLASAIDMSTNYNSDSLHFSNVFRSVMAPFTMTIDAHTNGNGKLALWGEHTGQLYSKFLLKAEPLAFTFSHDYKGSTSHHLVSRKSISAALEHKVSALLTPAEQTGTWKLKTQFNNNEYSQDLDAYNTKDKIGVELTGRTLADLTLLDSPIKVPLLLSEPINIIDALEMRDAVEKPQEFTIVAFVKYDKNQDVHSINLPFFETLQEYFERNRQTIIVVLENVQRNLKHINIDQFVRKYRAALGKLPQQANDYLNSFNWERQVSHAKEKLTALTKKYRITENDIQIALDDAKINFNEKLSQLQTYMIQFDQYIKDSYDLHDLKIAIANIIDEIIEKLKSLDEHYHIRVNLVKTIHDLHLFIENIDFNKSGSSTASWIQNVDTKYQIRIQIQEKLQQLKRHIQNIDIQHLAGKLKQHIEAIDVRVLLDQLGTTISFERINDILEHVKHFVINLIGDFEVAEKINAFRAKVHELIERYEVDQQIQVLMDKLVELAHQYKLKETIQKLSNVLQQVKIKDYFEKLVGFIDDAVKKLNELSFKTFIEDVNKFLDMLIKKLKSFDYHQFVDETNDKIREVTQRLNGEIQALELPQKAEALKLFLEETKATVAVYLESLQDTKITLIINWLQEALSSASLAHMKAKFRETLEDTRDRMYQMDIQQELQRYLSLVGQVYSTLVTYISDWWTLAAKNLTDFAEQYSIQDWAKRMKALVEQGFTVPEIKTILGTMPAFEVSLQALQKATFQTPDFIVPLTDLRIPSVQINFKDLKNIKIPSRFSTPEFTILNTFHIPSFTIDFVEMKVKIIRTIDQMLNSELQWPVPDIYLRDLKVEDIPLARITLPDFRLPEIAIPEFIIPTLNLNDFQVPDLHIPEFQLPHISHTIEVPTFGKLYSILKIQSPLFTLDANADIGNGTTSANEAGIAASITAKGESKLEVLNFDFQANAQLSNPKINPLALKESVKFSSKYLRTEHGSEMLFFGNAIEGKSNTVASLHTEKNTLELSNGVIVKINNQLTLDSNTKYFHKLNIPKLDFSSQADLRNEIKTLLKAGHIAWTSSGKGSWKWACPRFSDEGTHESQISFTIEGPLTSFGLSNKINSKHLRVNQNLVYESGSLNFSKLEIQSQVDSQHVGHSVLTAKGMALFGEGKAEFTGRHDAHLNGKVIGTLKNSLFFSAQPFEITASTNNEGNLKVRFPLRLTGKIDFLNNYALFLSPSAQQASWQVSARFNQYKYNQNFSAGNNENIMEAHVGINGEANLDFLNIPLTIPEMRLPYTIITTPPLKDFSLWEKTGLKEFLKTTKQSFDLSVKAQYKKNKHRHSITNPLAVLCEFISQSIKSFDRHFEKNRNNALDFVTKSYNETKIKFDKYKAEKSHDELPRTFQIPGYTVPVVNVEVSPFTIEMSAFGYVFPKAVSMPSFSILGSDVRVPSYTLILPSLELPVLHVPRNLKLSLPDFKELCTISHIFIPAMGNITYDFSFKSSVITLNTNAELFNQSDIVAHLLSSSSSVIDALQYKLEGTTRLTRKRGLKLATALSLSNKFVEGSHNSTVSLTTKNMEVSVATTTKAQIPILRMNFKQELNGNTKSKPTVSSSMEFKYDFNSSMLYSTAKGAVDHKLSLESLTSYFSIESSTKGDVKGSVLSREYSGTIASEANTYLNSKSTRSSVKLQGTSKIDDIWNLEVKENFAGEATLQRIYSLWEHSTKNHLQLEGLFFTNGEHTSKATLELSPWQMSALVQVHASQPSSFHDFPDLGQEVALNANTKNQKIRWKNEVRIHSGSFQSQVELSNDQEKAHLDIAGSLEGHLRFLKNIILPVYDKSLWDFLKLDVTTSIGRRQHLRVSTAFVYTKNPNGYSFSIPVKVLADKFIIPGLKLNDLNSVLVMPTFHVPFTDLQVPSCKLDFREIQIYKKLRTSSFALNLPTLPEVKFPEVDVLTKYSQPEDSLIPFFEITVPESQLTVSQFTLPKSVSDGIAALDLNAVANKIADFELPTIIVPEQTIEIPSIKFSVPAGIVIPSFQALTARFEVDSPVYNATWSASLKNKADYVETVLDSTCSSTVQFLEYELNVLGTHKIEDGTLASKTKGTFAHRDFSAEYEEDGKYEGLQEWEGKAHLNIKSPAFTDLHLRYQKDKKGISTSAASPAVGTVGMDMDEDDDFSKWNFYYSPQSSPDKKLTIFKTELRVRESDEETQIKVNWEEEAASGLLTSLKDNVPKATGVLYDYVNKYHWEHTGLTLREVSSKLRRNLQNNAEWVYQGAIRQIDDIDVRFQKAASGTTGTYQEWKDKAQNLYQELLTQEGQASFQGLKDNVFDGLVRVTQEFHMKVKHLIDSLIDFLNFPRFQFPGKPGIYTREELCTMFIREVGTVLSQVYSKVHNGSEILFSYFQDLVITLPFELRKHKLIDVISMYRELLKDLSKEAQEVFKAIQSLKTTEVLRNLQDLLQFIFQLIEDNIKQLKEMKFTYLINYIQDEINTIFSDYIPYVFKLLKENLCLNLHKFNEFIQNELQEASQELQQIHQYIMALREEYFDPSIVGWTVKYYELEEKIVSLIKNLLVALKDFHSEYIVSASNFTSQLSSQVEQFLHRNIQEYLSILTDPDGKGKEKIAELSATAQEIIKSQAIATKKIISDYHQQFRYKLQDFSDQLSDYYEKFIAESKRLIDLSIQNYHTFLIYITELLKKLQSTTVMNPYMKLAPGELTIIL", "test": "Agarose electrophoresis of purified human LDL mixed with compound", "format": "binding", "description": "Agarose electrophoresis is a technique used to separate and study lipoproteins. The monosuccinic acid ester of probucol was added to purified human LDL and the mixture was run on agarose electrophoresis."}, "[1]": {"biological_target": "T2, specific epitope on apoB-100 of LDL (Homo sapiens, UniProt P04114)", "T2 construct": "from tissue; host or cells: LDL particles (plasma lipoprotein)", "T2 sequence (P04114 28-4563)": "as above", "test": "Immunoreactivity cell-free sandwich ELISA: binding of LDL to capture anti-apoB monoclonal antibody", "conditions": "for Cell-Free Assay: immunoreactivity cell-free assay of Example 3, yes/no", "description": "To determine if the binding of the monosuccinic acid ester to VLDL and LDL can cause a change in the structure of apoB-100, an immunoreactivity assay was designed. This is a sandwich ELISA assay which measures the expression of a specific epitope on apoB-100. Essentially the sandwich ELISA consists of a specific monoclonal antibody directed to that epitope on apoB-100 as a capture antibody laid onto a microtitre plate. […] A second polyclonal antibody is then used to quantify the amount of LDL captured.\nThe detailed immunoreactivity protocol is as follows. A nunc maxi-sorp microtiter plate is coated overnight at 4° C. with 100 μl of Anti-Human ApoB monoclonal antibody from Boehringer Mannheim (catalog # 1533 975) diluted 1:1000 in PBS pH 7.4. The compounds are dissolved in DMSO with appropriate concentration of LDL for 15 minutes and incubated at 37° C.\nThe coated microtiter plate is washed three times with 200 μl PBS/0.05% tween, and a sample of 100 μl LDL/Compound or LDL standard is added to each well. The plates are then incubated for 2 hours at room temperature.\nThe microtiter plate is washed three times with 200 μl PBS/0.05% tween, and 100 μl of 1:2000 Polyclonal Human Anti-ApolipoproteinB from Boehringer Mannheim (catalog # 726 494) in PBS/tween 0.05% is added. The plate is incubated for one hour at room temperature.\nThe microtiter plate is washed three times with 200 ul PBS/0.05% tween, and 100 μl of 1:2000 Anti-Sheep Ig peroxidase from Boehringer Mannheim (catalog # 605 345) in PBS/05% tween is added. The plate is incubated for one hour at room temperature.\nThe microtiter plate is washed three times with 200 ul PBS/0.05% tween, and 100 μl of TMB substrate is added and incubated for 5-10 minutes in the dark. The reaction is stopped with 15 μl 8N H2SO4 and read on the Bio-Rad Microplate plate reader at 450 nm within 30 minutes."}, "VLDL and LDL clearance": {"test_system": "VLDL and LDL clearance", "test": "Lipoprotein turnover study in monkeys (stable isotope labelling of apoB-100)", "format": "in vivo, monkey", "description": "A lipoprotein turnover study was performed in monkeys that were dosed with the monosuccinic acid ester of probucol (25 mg/kg/day for one four weeks). The clearance rates of VLDL and LDL were examined before and after treatment of the animals using a stable isotope technique to label apoB-100 in VLDL and LDL."}, "total plasma cholesterol": {"test_system": "total plasma cholesterol", "test": "Cholesterol lowering in mice lacking functional LDL receptors", "format": "in vivo, mouse", "conditions": "LDL receptor-deficient mice, 150 mg/kg/day oral with high fat/high cholesterol diet, 12 weeks", "description": "To explore whether the enhanced clearance is mediated by the tissue LDL receptors, the major clearance mechanism for LDL in the body, the LDL lowering activity of the monosuccinic acid ester of probucol was tested in a mouse model that lacks functional LDL receptors (eliminated through genetic engineering)."}, "[2]": {"test_system": "LDL cholesterol, HDL, plasma triglycerides", "conditions": "human, in vivo; cited from earlier work"}, "apoB-100 epitope in VLDL": {"biological_target": "T3, apoB-100 epitope in VLDL (Homo sapiens, UniProt P04114)", "T3 construct": "relative to the native VLDL; from tissue; host or cells: VLDL particles (plasma lipoprotein)", "T3 sequence (P04114 28-4563)": "as above", "test": "Immunoreactivity sandwich ELISA with VLDL", "format": "binding", "conditions": "FIG. 6b", "description": "To determine if the binding of the monosuccinic acid ester to VLDL and LDL can cause a change in the structure of apoB-100, an immunoreactivity assay was designed. This is a sandwich ELISA assay which measures the expression of a specific epitope on apoB-100. Essentially the sandwich ELISA consists of a specific monoclonal antibody directed to that epitope on apoB-100 as a capture antibody laid onto a microtitre plate. LDL or VLDL added to the plate is bound to the antibody as a result of recognition of the specific epitope. A second polyclonal antibody is then used to quantify the amount of LDL captured."}, "HepG2 cells": {"test_system": "HepG2 cells", "test": "Uptake of radioiodinated human LDL by HepG2 cells", "format": "cell-based", "conditions": "HepG2, 24 h", "description": "In order to test whether the change in structure of LDL by the monosuccinic acid ester of probucol can affect the uptake of this lipoprotein by liver cells in vitro, purified human radioiodinated LDL was mixed with various concentrations of the probucol derivative and incubated for 15 minutes at room temperature. After that, the mixture of LDL and the probucol derivative was added to HepG2 cells in culture and the uptake of radiolabeled LDL measured after 24 h. At each concentration of compound, the specific uptake of LDL was also determined by examining LDL uptake in the presence of excess unlabeled LDL."}, "[3]": {"biological_target": "T4, other epitopes on LDL apoB-100 (Homo sapiens, UniProt P04114)", "T4 construct": "from tissue; host or cells: LDL particles (plasma lipoprotein)", "T4 sequence (P04114 28-4563)": "as above", "test": "Epitope specificity: four other monoclonal antibodies (1D, 2D8, 5E11, 4G3) against apoB-100 on LDL", "format": "binding", "description": "The specificity of epitope expression changes by the monosuccinic acid ester of probucol were established by examining MSE's effects on other epitopes on LDL. This was probed by using four other monoclonal antibodies (1D, 2D8, 5E11, 4G3) in comparison to the Boehringer Mannheim (Band M) antibody used in the assays described above."}, "plasma cholesterol": {"test_system": "plasma cholesterol", "test": "Plasma cholesterol lowering in hamsters", "parameters": "species or system hamster", "conditions": "ability to lower plasma cholesterol in vivo in hamsters, yes/no", "description": "The monosuccinic acid ester of probucol and several other compounds were tested in vitro in the immunoreactivity cell-free assay described above in Example 3 and in vivo in hamsters for their ability to lower plasma cholesterol."}, "[4]": {"conditions": "rabbit, in vivo, po, 150 mg/kg/day", "quoted_text": "To examine if the monosuccinic acid ester of probucol partitions with plasma circulating lipoproteins, rabbits were fed a high-fat diet for six weeks and dosed with the compound at a dose of 150 mg/Kg per day orally. The animals were bled at six weeks and plasma lipoproteins isolated at high-speed using ultra-centrifugation.\nWhole plasma was fractionated by fast phase liquid chromatography (FPLC) using a Superose 6HR 10/30 column. Elution was performed in a phosphate-buffered saline solution containing 0.01% EDTA and 0.02% NaN3 at a flow rate of 0.3 m/min. Approximately 0.6 ml was collected for each fraction and 20 fractions were available for analysis. The cholesterol content of the peaks corresponding to low density lipoprotein (LDL) and high density lipoprotein (HDL) were compared to CDC reference methods. VLDL corresponds to fractions 4-8 (elution volumes 7.2-9.6), LDL to fractions 9-16 (elution volume 10.2-14.4) and HDL to fractions 17-23 (elution volume 15-18.6).\nThe monosuccinic acid ester of probucol (MSE) levels in the different lipoprotein fractions were determined by high pressure liquid chromatography (HPLC) using a Rainin C 18 column (830201-C). Fractions corresponding to the different lipoprotein fractions were pooled and dried down by centrifugation under vacuum and resuspended in 0.5 ml of phosphate buffered saline. MSE was extracted with 0.5 ml of ether. 100 ul of the ether solution was added to 400 ul of acetonitrile and 0.02 ml was loaded onto the column. The mobile phase was 75:20:5 acetonitrile, methanol, and 50 mM acetic acid in methanol.\nThe amount of the MSE bound to each of the lipoproteins was estimated."}},
  "data": [
    {"compound": "CC(C)(Sc1cc(C(C)(C)C)c(O)c(C(C)(C)C)c1)Sc1cc(C(C)(C)C)c(O)c(C(C)(C)C)c1", "note": "[probucol, 4,4′-(isopropylidenedithio) bis(2,6-di-tert-butylphenol), reference compound]", "values": [
      {"measurement": "shift of electrophoretic mobility of LDL", "setting": "purified human LDL", "value": "did not shift the mobility of LDL"},
      {"measurement": "effect on binding of LDL to the capture monoclonal antibody (FIG. 6a)", "setting": "[1]", "value": "no significant effect"},
      {"measurement": "effect on clearance of VLDL (general statement)", "setting": "VLDL and LDL clearance; no species or dose stated", "value": "little effect"},
      {"measurement": "lowering of plasma cholesterol", "setting": "total plasma cholesterol", "value": 17, "unit": "%"},
      {"measurement": "effect on plasma triglycerides", "setting": "[2]", "value": "no effect"}
    ]},
    {"compound": "CC(C)(Sc1cc(C(C)(C)C)c(O)c(C(C)(C)C)c1)Sc1cc(C(C)(C)C)c(OC(=O)CCC(=O)O)c(C(C)(C)C)c1", "note": "[MSE, Butanedioic acid, mono[4-[[1-[[3,5-bis(1,1-dimethylethyl)-4-hydroxyphenyl]thio]-1-methylethyl]thio]-2,6-bis(1,1-dimethylethyl)phenyl] ester]", "values": [
      {"measurement": "shift of electrophoretic mobility of LDL", "setting": "purified human LDL", "value": "shifted the mobility of LDL"},
      {"measurement": "increase of binding of LDL to the capture monoclonal antibody", "setting": "[1]; 15 uM", "value": 300, "unit": "%"},
      {"measurement": "increase of binding of LDL to the capture monoclonal antibody", "setting": "[1]; 30 uM", "value": 500, "unit": "%"},
      {"measurement": "epitope expression on LDL detected by the Boehringer Mannheim antibody", "setting": "[1]; FIG. 7", "value": "significantly enhanced"},
      {"measurement": "Cell-Free Assay", "setting": "[1]", "value": "yes"},
      {"measurement": "increase of binding of VLDL apoB-100 epitope to the antibody relative to native VLDL", "setting": "apoB-100 epitope in VLDL", "value": "about 375%"},
      {"measurement": "increase of specific uptake of LDL relative to absence of MSE", "setting": "HepG2 cells; 18 uM", "value": 12.8, "unit": "%"},
      {"measurement": "increase of specific uptake of LDL relative to absence of MSE", "setting": "HepG2 cells; 25.5 uM", "value": 77.6, "unit": "%"},
      {"measurement": "increase of specific uptake of LDL relative to absence of MSE", "setting": "HepG2 cells; 33 uM", "value": 249, "unit": "%"},
      {"measurement": "expression of epitopes detected by the other four antibodies against apoB-100", "setting": "[3]", "value": "unaffected"},
      {"measurement": "LDL clearance rates", "setting": "VLDL and LDL clearance; monkeys, 25 mg/kg/day", "value": "increased"},
      {"measurement": "clearance of VLDL after treatment relative to before dosing", "setting": "VLDL and LDL clearance; monkeys, 25 mg/kg/day", "value": "marked enhancement"},
      {"measurement": "production of VLDL or LDL", "setting": "VLDL and LDL clearance; monkeys, 25 mg/kg/day", "value": "no apparent effects"},
      {"measurement": "effect on total plasma cholesterol levels", "setting": "total plasma cholesterol", "value": "did not result in any significant effects"},
      {"measurement": "Hamster", "setting": "plasma cholesterol", "value": "yes"},
      {"measurement": "MSE recovered in the different lipoprotein fractions", "setting": "[4]", "value": "> 80", "unit": "%"},
      {"measurement": "amount found in the non-lipoprotein plasma fraction", "setting": "[4]", "value": "Very little"},
      {"measurement": "distribution of MSE among lipoprotein fractions", "setting": "[4]", "value": "most being found in the VLDL fraction, followed by LDL and some in IDL and HDL"}
    ]},
    {"compound": "CCCN(CCC)C(=O)c1ccc(CSc2cc(C(C)(C)C)c(O)c(C(C)(C)C)c2)cc1", "note": "[N,N-dipropyl-4-[(3,5-di-tert-butyl-4-hydroxyphenylthio)methyl]benzamide]", "values": [
      {"measurement": "Cell-Free Assay", "setting": "[1]", "value": "no"},
      {"measurement": "Hamster", "setting": "plasma cholesterol", "value": "no"}
    ]},
    {"compound": "COC(=O)c1ccc(CSc2cc(C(C)(C)C)c(O)c(C(C)(C)C)c2)o1", "note": "[Methyl 5-(3,5-id-tert-butyl-4-hydroxyphenylthio)methyl-2-furoate]", "values": [
      {"measurement": "Cell-Free Assay", "setting": "[1]", "value": "yes"},
      {"measurement": "Hamster", "setting": "plasma cholesterol", "value": "yes"}
    ]},
    {"compound": "Mono[4-(3,5-di-tert-butyl-4-hydroxyphenacylthio)-2,6-di-tert-butylphenyl] succinate", "values": [
      {"measurement": "Cell-Free Assay", "setting": "[1]", "value": "yes"},
      {"measurement": "Hamster", "setting": "plasma cholesterol", "value": "no"}
    ]},
    {"compound": "Mono[4-(3,5-di-tert-butyl-4-hydroxybenzyl)-2,6-di-tert-butylphenyl]glutarate", "values": [
      {"measurement": "Cell-Free Assay", "setting": "[1]", "value": "no"},
      {"measurement": "Hamster", "setting": "plasma cholesterol", "value": "no"}
    ]},
    {"compound": "CC(C)(C)c1cc(SCc2ccc(CCO)cc2)cc(C(C)(C)C)c1O", "note": "[2,6-di-tert-butyl-4-thio-(4′-(methyl)phenylethyl alcohol))phenol]", "values": [
      {"measurement": "Cell-Free Assay", "setting": "[1]", "value": "yes"},
      {"measurement": "Hamster", "setting": "plasma cholesterol", "value": "yes"}
    ]},
    {"compound": "CN(C)C(=O)Cc1ccc(CSc2cc(C(C)(C)C)c(O)c(C(C)(C)C)c2)cc1", "note": "[N,N-dimethyl-4-[(3,5-di-tert-butyl-4-hydroxyphenylthio)methyl]phenylacetamide]", "values": [
      {"measurement": "Cell-Free Assay", "setting": "[1]", "value": "yes"},
      {"measurement": "Hamster", "setting": "plasma cholesterol", "value": "yes"}
    ]},
    {"compound": "Mono[4-(3,5-di-tert-butyl-4-hydroxybenzyl)2,6-di-tert-butylphenyl] succinate", "values": [
      {"measurement": "Cell-Free Assay", "setting": "[1]", "value": "yes"},
      {"measurement": "Hamster", "setting": "plasma cholesterol", "value": "no"}
    ]},
    {"compound": "CC(C)(C)c1cc(SCc2cccc(OC(F)(F)F)c2)cc(C(C)(C)C)c1O", "note": "[2,6-di-tert-butyl-4-[(3-trifluoromethoxy)benzylthio]phenol]", "values": [
      {"measurement": "Cell-Free Assay", "setting": "[1]", "value": "no"},
      {"measurement": "Hamster", "setting": "plasma cholesterol", "value": "no"}
    ]},
    {"compound": "CN(C)S(=O)(=O)c1ccc(CSc2cc(C(C)(C)C)c(O)c(C(C)(C)C)c2)cc1", "note": "[2,6-di-tert-butyl-4-thio-(4′-methyl-N,N-dimethylbenzenesulfonamide) phenol]", "values": [
      {"measurement": "Cell-Free Assay", "setting": "[1]", "value": "yes"},
      {"measurement": "Hamster", "setting": "plasma cholesterol", "value": "yes"}
    ]},
    {"compound": "CC(C)(C)c1cc(SCc2cccc(C(F)(F)F)c2)cc(C(C)(C)C)c1O", "note": "[2,6-di-tert-butyl-4-[(3-trifluoromethyl)benzylthio]phenol]", "values": [
      {"measurement": "Cell-Free Assay", "setting": "[1]", "value": "no"},
      {"measurement": "Hamster", "setting": "plasma cholesterol", "value": "yes"}
    ]}
  ]
}
